Results on ten compounds are retold here after publication PMC10993450, “New benzimidazole derivative compounds with in vitro fasciolicidal properties” (Parasites & Vectors, 2024).

SMILES strings stand for the structures. “And” between values parts separate entries of the source, which are not always exact repeats. Identical values can stand only once. “Also recorded” adds a separate entry of the source. Like-named read-outs stand apart in the source and are kept apart here.

In series [1] the test system is Fasciola hepatica eggs (ABZ-susceptible isolate). Put plainly: Egg hatch test (EHT), ABZ-susceptible isolates. It counts as cell-based. The following applies: mean ± SEM; for % Ovicidal activity: ABZ-susceptible isolate. The method, then:
Eggs were recovered from gallbladders of cattle naturally infected with F. hepatica at the municipal slaughterhouse of León (Spain). For this, the bile of the gallbladders was filtered through sieves of different diameter size pores (500, 150, and 20 µm) using pressurized tap water. Eggs retained on the 20 µm pore size sieve were collected and stored at 4 °C in darkness until required within a maximum period of 2 months.
The susceptibility of the isolates to ABZ was confirmed by the egg hatch test (EHT) using an ABZ discriminant dose (DD) of 0.5 µM [23]. The technique is described in more detail below.
The in vitro anthelmintic activity of a total of 70 BZDs was initially tested on F. hepatica eggs recovered from gallbladders of cattle naturally infected with ABZ-susceptible isolates. The first screening was performed using a fixed concentration of 50 µM. […] Therefore, only BZDs with ovicidal activities over 80% progressed to the next assays at 10 µM. […] At this last concentration, the ovicidal effect of ABZ, ABZSO, and OXF was also evaluated.
(§1) The in vitro EHT described in the current study was based on previous studies. Briefly, 100–120 eggs were incubated in 990 µL of water and 10 μL of each working solution at 25 °C in the dark for a period of 12 h. After incubation, eggs were gently washed with tap water three times to facilitate compound removal and kept in darkness at 25 °C for 14 days. After this period, eggs were exposed to light for 2 h to stimulate the hatching of eggs. Then, hatched and unhatched eggs were evaluated and counted using an optical microscope. The term “hatched eggs” includes both hatched and embryonated eggs. Negative control eggs were incubated with 10 μL of DMSO in 990 μL of water, reaching a maximum DMSO concentration of 1% (v/v), while ABZ at 0.5 µM was used as positive control. Each compound at a specific concentration was tested in triplicate in the same EHT and repeated at least two different days.
With the aim to characterize the susceptibility of isolates from naturally infected cattle, the drug used in the EHT was ABZ, tested at a discriminant dose of 0.5 μM. Drug susceptibility is assumed when the ovicidal activity is over 70%, resistance when is lower than 40%, and a suspicion of resistance when activity is between these values at 0.5 μM.
(§2) The efficacy of each compound and drug was calculated as its ovicidal activity following the formula below: Ovicidal activity%=100×%eggs hatched in negative control-%egg hatched after drug incubation/%egg hatched in control.

A further series concerns HepG2 cells. The series is described as follows: Cytotoxicity assay, alamarBlue. It counts as cell-based, human. The procedure:
The effect of the BZDs on cell viability was assessed on a human hepatocarcinoma HepG2 (ATCC® HB-8065™, USA) cell line. Only compounds screened at a concentration of 10 µM were evaluated. The detailed protocol is described in a previous study carried out by our research group. Briefly, 10,000 cells were seeded on 96-well plates and incubated with different concentrations of the compounds ranging from 1 to 100 µM at 37 °C and 5% CO2. After 72 h of exposure, viability of the cells was assessed using the alamarBlue (Fisher Scientific®, Spain) staining method according to the manufacturer’s recommendations.
The data are represented as mean ± standard error of media (SEM).
Background: Resazurin is reduced to fluorescent resorufin, in cell work by metabolically active cells.

Series [2] relates to murine intestinal organoids. Put plainly: Intestinal tolerability assay on murine intestinal organoids. Type of series: cell-based, mouse. The method, then: The murine intestinal organoid cultures were prepared following Stemcell Technologies™ protocols (https://www.stemcell.com/intestinal-epithelial-organoid-culture-with-intesticult-organoid-growth-medium-mouse-lp.html#protocols). Small intestine sections from C57BL/6 mice were excised, washed with ice-cold PBS, minced, and 2 mm segments were washed extensively. The segments were treated with Gentle Cell Dissociation Reagent (Stemcell Technologies™, Canada), resuspended in ice-cold PBS with 0.1% BSA and filtered. This process was repeated four times, resulting in four fractions. Cells from each fraction were centrifuged, washed, and resuspended in ice-cold DMEM/F12 supplemented with glutamine and HEPES 15 mM. Each fraction was mixed with Geltrex GFR LDEV-free (Gibco, Thermo Fisher Scientific, USA) and IntestiCult™ Organoid Grow Medium Mouse (Stemcell Technologies™, Canada), added to a 24-well plate and incubated at 37 °C for 10 min for matrix polymerization. The organoids were cultured in IntestiCult™ Organoid Grow Medium Mouse, with medium changes every 2 days and splitting after 7 days.
For intestinal tolerability assays, selected hit compounds were tested in mouse intestinal organoids at 25 and 50 µM final concentrations. The protocol, based on a previous work, involved the addition of Gentle Cell Dissociation Reagent (Stemcell Technologies™, Canada) on matrix domes, the disruption of the matrix, and the incubation the suspension. After centrifugation, cells were resuspended in DMEM/F12 supplemented with glutamine and HEPES 15 mM and centrifugated again. The pellet was resuspended in a mix of Geltrex GFR LDEV-free and IntestiCult™ Organoid Grow Medium Mouse. The mix was plated in 384-well plates, and after 4 days, mature organoids were exposed to the compounds. The positive control was hydrogen peroxide (0.15% v/v), and the negative control was DMSO (0.2%). Viability after 72 h was assessed using the alamarBlue assay.

Series [3] has as its system Teladorsagia circumcincta eggs. As to conditions: type II BZDs; read-out: IC50 against T. circumcincta eggs; cited from earlier work.
Series [4] relates to Fasciola hepatica eggs (ABZ-resistant isolate). Put plainly: Egg hatch test (EHT), ABZ-resistant isolate. It counts as cell-based.
Text: F. hepatica eggs were recovered after washing the gallbladder of three naturally infected sheep belonging to a flock suspected to be resistant to ABZ. From these eggs, metacercariae were produced at the Centro de Investigaciones de Mabegondo (AGACAL, Xunta de Galicia, Spain) following a previous protocol. These metacercariae were used to infect eight sheep with a dose of 200 metacercariae. The infection was confirmed individually 3 months after the infection by coprological analysis using a sedimentation technique. At that point, sheep were randomly located in two groups of four animals: one treated with a therapeutic dose of ABZ (7.5 mg/kg) and the other one only with water, as control group. To assess the efficacy of ABZ in this isolate, all sheep were humanely euthanized by an intravenous administration of a lethal dose of sodium pentobarbital (Dolethal®, Vetoquinol, Spain) 2 weeks later for fluke recovery and counting. Afterwards, the in vivo efficacy of ABZ was calculated as the percentage of adult worm reduction compared with the untreated control. Additionally, the number of eggs per gram of feces (EPG) was estimated on the treatment day (mentioned as day 0) and 14 days later to determine drug efficacy by means of the fecal egg count reduction test (FECRT).
During the necropsy, gallbladders from sheep belonging to the untreated group were taken to collect the eggs and carry out the in vitro EHT, while flukes collected from livers were used to conduct the adult viability test (AVT).
Those BZDs with an activity higher than 80% at a concentration of 10 µM were also screened on eggs and adults from the ABZ resistant isolate.
as §1, §2

Series [5] deals with Fasciola hepatica adults (ABZ-resistant isolate). Put plainly: Adult viability test (AVT), motility inhibition. The following applies: for inhibition at 10 µM: Fasciola hepatica. Type of series: cell-based. The method, then:
The adult viability test was based on a previous study carried out by Kirchhofer et al. with minor modifications. In brief, adult F. hepatica flukes were recovered from bile ducts of infected sheep with the resistant isolate. Flukes were quickly washed with 0.9% (w/v) NaCl and placed in six-well plates (Costar, Spain) with RPMI 1640 culture medium (Sigma-Aldrich®, Spain) supplemented with antibiotics (50 μg/mL streptomycin and 50 IU/mL penicillin; Sigma-Aldrich®, Spain) and 80 μg/mL of a hemin solution at 37 °C.
To monitor the anthelmintic effect of BZDs and the commercial drug ABZ, two flukes per well were incubated up to 72 h at a final concentration of 10 µM. DMSO at 0.5% was used as negative control. The individual movement of each fluke was examined using an inverted microscope at 24, 48, and 72 h. The activity of the compounds was estimated as motility inhibition, using a scale of fluke viability ranging from 3 (normal movements) to 0 (death, no movement observed for 2 min). All tests were repeated at least twice at different days.
Additionally, the percentage of motility inhibition for each compound was calculated from […] to 48 and 72 h after treatment using the following formula: 100 × (mean of the motility score of BZD at 24 h − mean of the motility score of BZD at 48 or 72 h)/(mean of the motility score of BZD at 24 h).
For the AVT, statistical analysis was performed using GraphPad Prism version 8.0.2. The normality of the motility inhibition scores was assessed using the Shapiro–Wilk test. Then, differences among scores at the three time points (24, 48, and 72 h) were evaluated using the Friedman test. In cases where significant differences were observed, post hoc analysis was conducted using the Nemenyi test for multiple comparisons. Comparisons with a P value < 0.05 were considered statistically significant.

Another series has as its system Fasciola hepatica eggs. Further details: method as in PMID 19560276. The following applies: other studies; cited from earlier work.

Usually CC50 stands for the concentration at which the toxic effect on the cells reaches its halfway point. As for `COc1ccc2[nH]c(NCc3ccc(N4CCCC4)cc3)nc2c1` [BZD38], the results for the “% Ovicidal activity” value in series [1] (10 µM) and in series [1] (50 µM) were 03.23 ± 00.84% and “higher than 80%”, respectively. In addition, the CC50 in the series on HepG2 cells is > 100 µM. In addition, the “% Viability in organoids” value in series [2] (25 µM) turned out to be 81.10%; in series [2] (50 µM), 38.00%.

On to `Cc1ccc2[nH]c(NCc3ccco3)nc2c1` [BZD30], for which the “% Ovicidal activity” value in series [1] (10 µM) is recorded as 52.41 ± 01.02%; in series [1] (10 µM, listed as BZD-30), “around 50%”; in series [1] (50 µM), 100.00 ± 0.00%; in series [1] (50 µM, listed as BZD-30) it was “higher than 80%”. Moreover, in the series on HepG2 cells (72 h exposure, alamarBlue, read-out: CC50 Hep-G2), the CC50 is > 50 µM. Also, the “% Viability in organoids” value was 62.50% in series [2] (25 µM, 72 h) and 54.00% in series [2] (50 µM, 72 h).

Broadly, the IC50 is the point on the concentration scale where inhibition reaches its midpoint. With `Cc1ccc2[nH]c(NC(=O)c3ccccn3)nc2c1` [BZD55], the “% Ovicidal activity” value in series [1] (10 µM) is 07.11 ± 03.01%; in series [1] (50 µM), 89.71 ± 3.87%; in series [1] (50 µM, listed as BZD-55) it was “higher than 80%”. The CC50 with HepG2 cells was > 100 µM. Besides, the “% Viability in organoids” value in series [2] (25 µM) is 98.60%. The IC50 in series [3] is ~1000 nM.

Turning to `Clc1ccc2[nH]c(NCc3ccccc3)nc2c1` [BZD32], the “% Ovicidal activity” value in series [1] (10 µM) is 09.11 ± 03.40%; in series [1] (50 µM), 92.62 ± 1.96%; in series [1] (50 µM, listed as BZD-32), “higher than 80%”. The entries for the “% Viability in organoids” value in series [2] (25 µM) and in series [2] (50 µM) were 48.10% and 52.10%, respectively.

On to `COc1ccc(-c2nc3cc(C)ccc3[nH]2)cc1` [BZD04], for which the “% Ovicidal activity” value in series [1] (10 µM) is on record as 64.27 ± 10.16%; in series [1] (50 µM) it was 99.57 ± 0.43%; in series [1] (50 µM, listed as BZD-04), “higher than 80%”. Besides, in series [2] (50 µM), the “% Viability in organoids” value came out at 10.50%.

Consider `COc1ccc(-c2nc3cc(Cl)ccc3[nH]2)cc1` [BZD08], for which the “% Ovicidal activity” value in series [1] (10 µM) is 55.33 ± 05.81%; in series [1] (10 µM, listed as BZD-08), “around 50%”; in series [1] (50 µM), 98.08 ± 1.06%; in series [1] (50 µM, listed as BZD-08) it was “higher than 80%”. The CC50 in the series on HepG2 cells is > 50 µM. Also, the “% Viability in organoids” value was 69.30% in series [2] (25 µM) and 47.30% in series [2] (50 µM).

One may read the inhibition as the share of the control response that was lost under treatment. As for `CCC[S+]([O-])c1ccc2[nH]c(NC(=O)OC)nc2c1` (centres unmarked) [ABZSO, albendazole sulfoxide, reference compound], in series [1] (Fasciola hepatica, 5 µM, read-out: % Ovicidal activity susceptible isolate), the killing at 5 µM was > 98%. Moreover, the “% Ovicidal activity resistant isolate” value in series [4] (5 µM, mean ± SEM) was 26% and 26.12 ± 11.87%. In addition, the “Ovicidal activity on the resistant isolate” value in series [4] (10 µM as printed) amounted to 26%. Moreover, in series [5] (10 µM, ABZ-resistant isolate), the “Motility inhibition of adults after 72 h of incubation (in words; significance vs 24 h)” value was “nor those with ABZSO or BZD46, exhibited any significant motility inhibition; also recorded: no evidence of inhibition; also recorded: did not produce any motility alteration”. In addition, the inhibition at 10 µM in series [5] (read-out: % Adult motility inhibition 48 h) and in series [5] (read-out: % Adult motility inhibition 72 h) was 25% throughout.

Regarding `Cc1ccc2[nH]c(NCc3ccccc3)nc2c1` [BZD27], the “% Ovicidal activity” value in series [1] (10 µM) is 44.65 ± 07.46%; in series [1] (10 µM, listed as BZD-27), “around 50%”; in series [1] (50 µM), 95.92 ± 1.99%; in series [1] (50 µM, listed as BZD-27), “higher than 80%”. Moreover, the “% Viability in organoids” value is 54.10% in series [2] (25 µM, 72 h) and 49.70% in series [2] (50 µM, 72 h).

In the case of `Nc1cc(C(Cl)=C(Cl)Cl)c(S(N)(=O)=O)cc1S(N)(=O)=O` [CLR, clorsulon], the “Effect on in vitro egg hatching” value in the series on Fasciola hepatica eggs is recorded as “did not affect in vitro egg hatching”.

Turning to `COc1ccc2[nH]c(NC(=O)c3ccccn3)nc2c1` [BZD61], the “% Ovicidal activity” value was 93.17 ± 3.31% in series [1] (50 µM) and “higher than 80%” in series [1] (50 µM, listed as BZD-61). In addition, in series [3], the IC50 is < 1000 nM.
